According to US20070054916A1, “Aryl nitrogen-containing bicyclic compounds and methods of use” (Amgen Inc., priority 2004, published 2007):

Test system: production of TNF by monocytes activated with bacterial lipopolysaccharide (LPS)
Assay: Lipopolysaccharide-activated monocyte TNF production assay
Type: cell-based
Conditions: Homo sapiens, read-out: IC50 values in the monocyte assay (LPS induced TNF release)
Method in brief: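 Adherent human PBMC-derived monocytes (~70%) in DMEM/2% FCS were pre-incubated 60 min with nine two-fold compound dilutions, then stimulated with E. coli K532 LPS (added as 30 ng/ml solution) for 4 h at 37 °C. Supernatant TNF-α was measured by sandwich ELISA. IC50 was taken from a polynomial fit of TNF versus compound concentration.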

Row | Structure (SMILES) | IC50 [µM]
1 | Cc1ccc(C(=O)Nc2cc(C(C)(C)C)ccc2N(C)CCCN(C)C)cc1-c1ccc2nc(N)ncc2c1 [Example 244, 3-(2-amino-6-quinazolinyl)-N-(2-((3-(dimethylamino)propyl)(methyl)amino)-5-(1,1-dimethylethyl)phenyl)-4-methylbenzamide] | ≤ 25
2 | COc1ccc(NC(=O)c2ccc(C)c(-c3ccc4nc(N)ncc4c3)c2)c(OC)c1 [Example 270, 3-(2-amino-6-quinazolinyl)-N-(2,4-bis(methyloxy)phenyl)-4-methylbenzamide] | ≤ 25
3 | Cc1ccc(C(=O)Nc2cc(C(F)(F)F)ccc2F)cc1-c1ccc2nc(N)ncc2c1 [Example 280, 3-(2-amino-6-quinazolinyl)-N-(2-fluoro-5-(trifluoromethyl)phenyl)-4-methylbenzamide] | ≤ 25
4 | Cc1ccc(C(=O)Nc2cccc3ncccc23)cc1-c1ccc2nc(N)ncc2c1 [Example 281, 3-(2-amino-6-quinazolinyl)-4-methyl-N-(5-quinolinyl)benzamide] | ≤ 25
5 | COc1cccc(NC(=O)c2ccc(C)c(-c3ccc4nc(N)ncc4c3)c2)c1OC [Example 283, 3-(2-amino-6-quinazolinyl)-N-(5,6-bis(methyloxy)-phenyl)-4-methylbenzamide] | ≤ 25
6 | COc1c(Cl)cccc1NC(=O)c1ccc(C)c(-c2ccc3nc(N)ncc3c2)c1 [Example 284, 3-(2-amino-6-quinazolinyl)-N-(5-chloro-8-(methyloxy)-phenyl)-4-methylbenzamide] | ≤ 25
7 | Cc1ccc(C(=O)Nc2cccc3nonc23)cc1-c1ccc2nc(N)ncc2c1 [Example 303, 3-(2-amino-6-quinazolinyl)-N-(2,1,3-benzoxadiazol-4-yl)-4-methylbenzamide] | ≤ 25
8 | Cc1ccc(C(=O)Nc2c3c(nn2CCC#N)CCC3)cc1-c1ccc2nc(N)ncc2c1 [Example 304, 3-(2-amino-6-quinazolinyl)-N-(2-(2-cyanoethyl)-2,4,5,6-tetrahydrocyclopenta [c]pyrazol-3-yl)-4-methylbenzamide] | ≤ 25
9 | Cc1ccc(C(=O)Nc2ccc(C(F)(F)F)cc2)cc1-c1ccc2nc(N(C)C)ncc2c1 [Example 319, 3-(2-(dimethylamino)-6-quinazolinyl)-4-methyl-N-(4-(trifluoromethyl)phenyl)benzamide] | ≤ 25
10 | Cc1cc(NC(=O)c2ccc(C)c(-c3ccc4nc(N)ncc4c3)c2)on1 [Example 323, 3-(2-amino-6-quinazolinyl)-4-methyl-N-(3-methyl-5-isoxazolyl)benzamide] | ≤ 25
11 | Cc1ccnc(NC(=O)c2ccc(C)c(-c3ccc4nc(N)ncc4c3)c2)c1 [Example 339, 3-(2-amino-6-quinazolinyl)-4-methyl-N-(4-methyl-2-pyridinyl)benzamide] | ≤ 25
12 | CCc1ccnc(NC(=O)c2ccc(C)c(-c3ccc4nc(N)ncc4c3)c2)c1 [Example 340, 3-(2-amino-6-quinazolinyl)-N-(4-ethyl-2-pyridinyl)-4-methylbenzamide] | ≤ 25
13 | Cc1csc(NC(=O)c2ccc(C)c(-c3ccc4nc(N)ncc4c3)c2)n1 [Example 341, 3-(2-amino-6-quinazolinyl)-4-methyl-N-(4-thiazol-2-yl)benzamide] | ≤ 25
14 | Cc1ccc(C(=O)Nc2nc3cc(Cl)ccc3o2)cc1-c1ccc2nc(N)ncc2c1 [Example 342, 3-(2-amino-6-quinazolinyl)-N-(5-chloro-1,3-benzoxazol-2-yl)-4-methylbenzamide] | ≤ 25
15 | Cc1ccc(C(=O)Nc2nnc(C(F)(F)F)s2)cc1-c1ccc2nc(N)ncc2c1 [Example 343, 3-(2-amino-6-quinazolinyl)-4-methyl-N-(5-(trifluoromethyl)-1,3,4-thiadiazol-2-yl)benzamide] | ≤ 25
16 | Cc1cc(NC(=O)c2ccc(C)c(-c3ccc4nc(N)ncc4c3)c2)ns1 [Example 344, 3-(2-amino-6-quinazolinyl)-4-methyl-N-(5-methyl-3-isothiazolyl) benzamide] | ≤ 25
17 | Cc1ccc(C(=O)Nc2cc(C(F)(F)F)ccn2)cc1-c1ccc2nc(N)ncc2c1 [Example 345, 3-(2-amino-6-quinazolinyl)-4-methyl-N-(4-(trifluoromethyl)-2-pyridinyl)benzamide] | ≤ 25
18 | Cc1ccc(C(=O)Nc2ncc(Cl)cc2Cl)cc1-c1ccc2nc(N)ncc2c1 [Example 346, 3-(2-amino-6-quinazolinyl)-N-(3,5-dichloro-2-pyridinyl)-4-methylbenzamide] | ≤ 25
19 | Cc1ccc(C(=O)Nc2nc(C(C)(C)C)cs2)cc1-c1ccc2nc(N)ncc2c1 [Example 352, 3-(2-amino-6-quinazolinyl)-N-(4-(1,1-dimethylethyl)-1,3-thiazol-2-yl)-4-methylbenzamide] | ≤ 25
20 | Cc1ccc(C(=O)Nc2ccc(I)cn2)cc1-c1ccc2nc(N)ncc2c1 [Example 353, 3-(2-amino-6-quinazolinyl)-N-(5-iodo-2-pyridinyl)-4-methylbenzamide] | ≤ 25

Row | Structure (SMILES) | IC50 [µM]
21 | CC(=O)c1sccc1NC(=O)c1ccc(C)c(-c2ccc3nc(N)ncc3c2)c1 [Example 355, N-(2-acetyl-3-thienyl)-3-(2-amino-6-quinazolinyl)-4-methylbenzamide] | ≤ 25
22 | Cc1ccc(C(=O)Nc2ncc(Br)s2)cc1-c1ccc2nc(N)ncc2c1 [Example 356, 3-(2-amino-6-quinazolinyl)-N-(5-bromo-1,3-thiazol-2-yl)-4-methylbenzamide] | ≤ 25
23 | Cc1ccc(C(=O)NCc2ccc(C(F)(F)F)nc2)cc1-c1ccc2nc(N)ncc2c1 [Example 357, 3-(2-amino-6-quinazolinyl)-4-methyl-N-((6-(trifluoromethyl)-3-pyridinyl)methyl) benzamide] | ≤ 25
24 | Cc1ccc(C(=O)Nc2ncccc2OCc2ccccc2)cc1-c1ccc2nc(N)ncc2c1 [Example 358, 3-(2-amino-6-quinazolinyl)-4-methyl-N-(3-((phenylmethyl)oxy)-2-pyridinyl)benzamide] | ≤ 25
25 | Cc1ccc(C(=O)Nc2cccc(C(F)(F)F)n2)cc1-c1ccc2nc(N)ncc2c1 [Example 359, 3-(2-amino-6-quinazolinyl)-4-methyl-N-(6-(trifluoromethyl)-2-pyridinyl)benzamide] | ≤ 25
26 | Cc1ccc(C(=O)Nc2ccc(C(F)(F)F)cn2)cc1-c1ccc2nc(N)ncc2c1 [Example 360, 3-(2-amino-6-quinazolinyl)-4-methyl-N-(5-(trifluoromethyl)-2-pyridinyl)benzamide] | ≤ 25
27 | Cc1ccc(C(=O)Nc2ncccc2O)cc1-c1ccc2nc(N)ncc2c1 [Example 361, 3-(2-amino-6-quinazolinyl)-N-(3-hydroxy-2-pyridinyl)-4-methylbenzamide] | ≤ 25
28 | Cc1ccc(C(=O)Nc2ncccc2OCCCN2CCCCC2)cc1-c1ccc2nc(N)ncc2c1 [Example 362, 3-(2-amino-6-quinazolinyl)-4-(methyl-N-(3-((3-1-piperidinyl)propyl)oxy)-2-pyridinyl)benzamide] | ≤ 25
29 | CCN(CC)CCOc1cccnc1NC(=O)c1ccc(C)c(-c2ccc3nc(N)ncc3c2)c1 [Example 363, 3-(2-amino-6-quinazolinyl)-N-(3-((2-(diethylamino)ethyl)oxy)-2-pyridinyl)-4-methylbenzamide] | ≤ 25
30 | Cc1ccc(C(F)(F)F)cc1NC(=O)c1ccc(C)c(-c2ccc3nc(N)ncc3c2)c1 [Example 365, 3-(2-amino-6-quinazolinyl)-4-methyl-N-(2-methyl-5-(trifluoromethyl)phenyl)benzamide] | ≤ 25
31 | Cc1ccc(C(=O)Nc2cccc(C(F)(F)F)c2C)cc1-c1ccc2nc(N)ncc2c1 [Example 369, 3-(2-amino-6-quinazolinyl)-4-methyl-N-(2-methyl-3-(trifluoromethyl)phenyl)benzamide] | ≤ 25
32 | CN1CC[C@@H](N(C)c2ccc(C(F)(F)F)cc2NC(=O)c2cc(-c3ccc4nc(N)ncc4c3)ccc2F)C1 [Example 419, 5-(2-amino-6-quinazolinyl)-2-fluoro-N-(2-(methyl((3R)-1-methyl-3-pyrrolidinyl)amino)-5-(trifluoromethyl)phenyl)benzamide] | ≤ 25
33 | Cc1ccc(C(=O)Nc2cc(C(F)(F)F)ccc2OCCN2CCCC2)cc1-c1ccc2nc(N)ncc2c1 [Example 420, 3-(2-amino-6-quinazolinyl)-4-methyl-N-(2-((2-(1-pyrrolidinyl)ethyl)oxy)-5-(trifluoromethyl)phenyl)benzamide] | ≤ 25
34 | CN1CCN(c2ccc(C(F)(F)F)cc2NC(=O)c2cc(-c3ccc4nc(N)ncc4c3)ccc2F)CC1 [Example 421, 5-(2-amino-6-quinazolinyl)-2-fluoro-N-(2-(4-methyl-1-piperazinyl)-5-(trifluoromethyl)phenyl)benzamide] | ≤ 25
35 | CN(C)[C@@H]1CCN(c2ccc(C(F)(F)F)cc2NC(=O)c2cc(-c3ccc4nc(N)ncc4c3)ccc2F)C1 [Example 422, 5-(2-amino-6-quinazolinyl)-N-(2-((3R)-3-(dimethylamino)-1-pyrrolidinyl)-5-(trifluoromethyl)phenyl)-2-fluorobenzamide] | ≤ 25
36 | Cc1ccc(C(=O)Oc2c(F)c(F)c(F)c(F)c2F)cc1-c1ccc2nc(N)ncc2c1 [Example 423, Perfluorophenyl-3-(2-aminoquinazolin-6-yl)-4-methylbenzoate] | ≤ 25
37 | Cc1ccc(C(=O)Nc2ccc(F)cc2F)cc1-c1ccc2nc(N)ncc2c1 [Example 424, 3-(2-amino-6-quinazolinyl)-N-(2,4-difluorophenyl)-4-methylbenzamide] | ≤ 25
38 | Cc1ccc(C(=O)NCc2ccncc2)cc1-c1ccc2nc(N)ncc2c1 [Example 425, 3-(2-amino-6-quinazolinyl)-4-methyl-N-(4-pyridinylmethyl) benzamide] | ≤ 25
39 | Cc1ccc(C(=O)NCc2ccccn2)cc1-c1ccc2nc(N)ncc2c1 [Example 426, 3-(2-amino-6-quinazolinyl)-4-methyl-N-(2-pyridinylmethyl) benzamide] | ≤ 25
40 | Cc1ccc(C(=O)NCCc2cccnc2)cc1-c1ccc2nc(N)ncc2c1 [Example 427, 3-(2-amino-6-quinazolinyl)-4-methyl-N-(2-(3-pyridinyl)ethyl)b enzamide] | ≤ 25
